Patent publication US7763604B2, “Methods for administration of a farnesyl dibenzodiazepinone” (Thallion Pharma Ceuticals, Inc., priority 2005, dated 2010)

Columns and labels:
[1] = pharmacokinetics of 14-day CIV infusion in monkeys; format: in vivo, Cynomolgus monkeys; details: for T1/2z: calculated at the end of treatment, mean
Experimental: Cynomolgus monkeys received continuous IV infusion over 14 days of Formula I at 5 mg/kg/day, 15 mg/kg/day, or 30 mg/kg/day. The drug was infused intravenously (24 hours/day) into the femoral vein at a dose rate of 2 ml/kg/hour for 14 consecutive days. Blood samples were removed from each monkey on Days 1, 2, 6, 10, and 15 of the treatment period. Monkeys were bled by venipuncture and samples were collected into tubes containing K2EDTA. On Day 1, samples were collected at 2, 6, and 12 hours after initiation of treatment. Additional samples were collected at 30 hours after the start of infusion (Day 2). On Days 6 and 10, samples were collected at approximately 6 hours after the bag changes. At the end of the 14 days of infusion, on Day 15, samples were collected at 1 hour prior to cessation of dose administration, and at 5 min, 30 min, 1 h, 2 h, 4 h, 8 h, and 24 h following cessation of dose administration.

[2] = pharmacokinetics and tissue levels after 30 mg/kg bolus IV, IP, SC and PO in mice; format: in vivo, female Crl: CD1 mice
Experimental: The compound of formula I was dissolved in ethanol (5%), Polysorbate 80 (15%), PEG 400 (5%) and dextrose (5%) at a final concentration of 6 mg/ml (IV, IP and SC administration). For oral administration, the compound of Formula I was solubilized in Chremophor® EL/Ethanol (50%:50%) at a final concentration of 6 mg/ml. Prior to dosing, animals (female Crl: CD1 mice; 6 weeks of age, 22-24 g) were weighed, randomly selected and assigned to the different treatment groups. The compound of Formula I was administered by the bolus intravenous (IV), bolus subcutaneous (SC), bolus intraperitoneal (IP), or oral (PO) route to the assigned animals. The dosing volume of Formula I was 5 mL per kg body weight. Animals were anesthetized prior to bleeding with 5% isoflurane. Blood was collected into microtainer tubes containing the anticoagulant K2EDTA by cardiac puncture from each of 4 animals per bleeding timepoint (2 min, 5 min, 15 min, 30 min, 1 h, 2 h, 4 h and 8 h). Following collection, the samples were centrifuged and the plasma obtained from each sample was recovered and stored frozen (at approximately −80° C.) pending analysis. At the 5 min and 30 min time points, the following organs were harvested from each animal: brain, lungs, skeletal muscle, fat tissue, kidneys, spleen, thymus and liver. Tissues were frozen (at approximately −80° C.) pending analysis. Samples were analysed by LC/MS/MS.
Plasma values of the compound of Formula I falling below the limit of quantitation (LOQ) were set to zero. […] The following pharmacokinetic parameters were calculated: area under the plasma concentration versus time curve from time zero to the last measurable concentration time point (AUCO-t), area under the plasma concentration versus time curve extrapolated to infinity (AUCinf), maximum observed plasma concentration (Cmax), time of maximum plasma concentration (tmax), apparent first-order terminal elimination rate constant (kel), apparent first-order terminal elimination half-life will be calculated as 0.693/kel (t1/2). The systemic clearance (CL) of the compound of Formula I after intravenous administration was calculated using Dose/AUCinf. Pharmacokinetic parameters were calculated using Kinetica™ 4.1.1 (InnaPhase Corporation, Philadelphia, Pa.).

[3] = test system: human glioma (U-87MG) tumor xenograft; assay: human U-87MG glioblastoma xenograft antitumor efficacy; format: in vivo, female athymic (nu/nu) nude mice; details: SC 30 mg/kg q1d×5 over 2 weeks
Description: In this model and the models of Examples 3, 6 and 7, tumor growth was followed every other day by measuring tumor length (L) and width (W) using a calliper. Measurements were converted to tumor volumes (TV; mm^3) using the standard formula, TV=(L×W^2)/2. Tumor volume at day n was expressed as relative tumor volume (RTV) according to the following formula RTV=TVn/TV0, where TVn is the tumor volume at day n and TV0 is the tumor volume at day 0. The percentage of tumor growth inhibition (% TGI) was determined by 1−(mean RTV of treated group/mean RTV of control group)×100. […] Statistical analysis was calculated by the two-tailed unpaired t test using the Prism software. Animals were weighed at least twice weekly during and after treatment until completion of the study. The mice were examined frequently for overt signs of any adverse drug-related side effects.
The human U-87 MG (ATCC® no. HTB-14™) glioblastoma antitumor efficacy study was performed at INSERM U318 (Grenoble, France). The U-87MG cell line is derived from a brain glioblastoma of a person. […]
For the human glioblastoma antitumor efficacy study, female athymic (nu/nu) nude mice (6-7 weeks of age) were inoculated SC with 5×10^6 U-87MG cells (day 0). […] Tumor growth inhibition (TGI) was calculated on day 34 post tumor cell inoculation, at which time some animals from the vehicle control group had to be sacrificed due to tumor burden.

CC(C)=CCC/C(C)=C/CC/C(C)=C/CN1C(=O)c2cccc(O)c2Nc2c(O)cc(O)cc21 [Formula I, 10-farnesyl-4,6,8-trihydroxy-dibenzodiazepin-11-one]
fold increase in AUC between groups ([1]; 15 mg/kg/day versus 5 mg/kg/day): 3.4 fold
fold increase in AUC between groups ([1]; 30 mg/kg/day versus 15 mg/kg/day): 4.7 fold
T1/2z ([1]; CIV 5 mg/kg/day): 12 h
T1/2z ([1]; CIV 15 mg/kg/day): 8.3 h
T1/2z ([1]; CIV 30 mg/kg/day): 8.1 h
concentration at 14 days ([1]; cynomolgus monkey, plasma, 14-day IV continuous infusion, read-out: stable plasma concentrations above the therapeutic threshold): > 2 µM
peak plasma concentration ([2]; IP bolus 30 mg/kg): 7.8 µM
time to peak plasma concentration ([2]; IP bolus 30 mg/kg): 15 min
tissue distribution ([2]; IV and IP bolus 30 mg/kg, 30 min time point): well distributed
drug levels after oral administration ([2]; PO 30 mg/kg): moderate but sustained drug levels
peak plasma concentration ([2]; SC bolus 30 mg/kg): 2.3 µM
time to peak plasma concentration ([2]; SC bolus 30 mg/kg): 60 min
tissue levels compared with IP ([2]; SC bolus 30 mg/kg, 30 min time point): significantly lower
t1/2,α ([2]; bolus IV 30 mg/kg, plasma, mice, 30 mg/kg): 4.7 min
plasma concentration, initial ([2]; bolus IV 30 mg/kg, start of decline): ~425 µM
time plasma concentration is maintained at therapeutically relevant levels ([2]; intraperitoneal and subcutaneous bolus 30 mg/kg, mice): over 8 hours
body weight loss [3]: no significant body weight loss
